The term pIC50 denotes the IC50 on a negative log10 scale, so that one unit is a factor of ten.

These results are taken from US4588725A, “2-piperazinyl-quinazoline derivatives and pharmaceutical compositions containing them” (Sandoz Ltd., priority 1982, dated 1986).

Test [1] concerns the target T1, 3H-spiperone binding sites (Bos taurus, UniProt P20288).
T1 construct: fresh calf brain striatal tissue was homogenized; from tissue; host or cells: calf brain striatum, membranes
The experiment in a line: 3H-spiperone binding in calf brain striatal tissue. The following applies: for pIC50: calf striatal membranes, 0.1 nM 3H-spiperone, 5×10^-7 M cinanserin, pH 7.7, 40 min room temperature, read-out: Receptor binding IC50 3H-spiperone; for effect in the 3H-spiperone binding test compared with Clozapine: in words, versus Clozapine. Here is the method:
The compounds of the invention bind further on ^3 H-spiperone binding sites in the brain [modified method of J. Leysen et al., Biochem. Pharmac. […] The test was performed as follows: fresh calf brain striatal tissue was homogenized in the 25 fold volume of tris buffer (pH 7.4, 50 mM, 120 mM sodium chloride) and centrifuged. The pellets were suspended in the 22 fold volume of tris buffer, incubated for 15 minutes at 37° C. and centrifuged. The pellets were suspended in the 300 fold volume of tris buffer. […] After incubation for 40 minutes at room temperature, the assay mixtures were rapidly filtered through Whatman GF/B filter, the filters washed twice with 5 ml of ice cold tris buffer and scintillation-counted.

In test [2] the test system is sleep/wake cycle (sleep phase II, paradoxical sleep). Briefly: sleep/wake cycle in rats. Format: in vivo. Here is the method:
Furthermore, the compounds on administration of 2-20 mg/kg p.o. to rats increase the sleep phase II and decrease the paradoxical sleep in the sleep/wake cycle carried out in accordance with the principles of H. Kleinlogel et al., European J. Pharmacol. 33, 159-163 (1975). […]

Test [3] concerns locomotion. Briefly: inhibition of locomotion in mice. The following applies: Mus musculus, po, minimum dose with significant inhibition, p.o., 1 hour after administration, read-out: Locomotor inhibition EDmin. Format: in vivo, mice (male, OF-1). Here is the method:
In particular, the compounds of formula I are useful as neuroleptic agents in the treatment of e.g. psychotic disorders such as schizophrenia, as indicated in standard tests, e.g. by an inhibition of locomotion in mice. In this test groups of 3 male mice (18-24 g, OF-1, Sandoz Basle) received 3.2, 10, 32, 100 and […]. of the test drug. 1 hour after drug administration the mice were observed individually and their locomotion compared with that of control. The locomotion of the animals was observed and the EDmin (the minimum dose at which significant inhibition was observed) determined.

The test system of test [4] is blood pressure or heart rate. Briefly: blood pressure / heart rate in anaesthetized normotonic rats. The following applies: Rattus norvegicus, iv, cumulative i.v. doses, by interpolation, read-out: ED75 (dose required to reduce the blood pressure or the heart rate to 75% of pretreatment values). Format: in vivo, female normotonic rats (Sprague-Dawley). Here is the method: In another test female normotonic rats (200-350 g, Sprague-Dawley, Suddeutsche Tierfarm, Tuttlingen, FRG) were anaesthetized with urethane (1.5-1.75 g/kg i.p. in 2 portions) and a tracheal cannula was inserted. Blood pressure and heart rate were recorded from the carotid artery by conventional methods. Test drugs were administered by the jugular or the femoral vein. Body temperature was maintained at 34° C. by means of a temperature regulator (Alfos MK-4) triggered by a thermistor on the animal. After adaptation, increasing doses of the test drug were injected i.v. to give the following cumulative doses: 3, 13, 43, 143, 343 and 1443 μg/kg. ED 75% is the dose required to reduce the blood pressure or the heart rate to 75% of pretreatment values. It was obtained through interpolation. The ED75 of the Example 3a compound is 524 μg/kg i.v.

For test [5], the target named is α1-receptors. The experiment in a line: 3H-Prazosin binding assay for α1-receptors in calf brain cortex tissue. Conditions: calf brain cortex membranes, 0.3 nM 3H-Prazosin, pH 7.7, 40 min room temperature; read-out: IC50 (inhibition of specific 3H-Prazosin binding). Here is the method:
The compounds of the invention are furthermore useful as anti-hypertensive agents, as indicated in standard tests, for example in the ^3 H-Prazosin binding assay for α1 -receptors [modified method of Greengrass P., et al., Eur. J. Pharmac. 55, 323-326 (1979)]. The test was performed as follows:
Fresh calf brain cortex tissue is homogenized in a 20 fold volume of Tris-HCl buffer (50 mM, pH 7.7), using a Polytron PT 20, and centrifuged at 30,000×g for 25 min. The pellets are resuspended in a 13 fold volume of the same buffer, incubated for 15 min at 37° C., and recentrifuged at 50,000×g for 11 min. The pellets of this centrifugation are frozen at -20° C. and resuspended in a 60 fold volume of the same buffer as above before use for the binding experiment. The composition of the assay mixtures (total volume=2 ml) is as follows: 50 mM Tris-HCl pH 7.7, membranes corresponding to 30 mg of original tissue weight, and 0.3 nM ^3 H-Prazosin. The assays for the definition of nonspecific binding additionally contain phentolamine at a concentration of 10 μM. To assess the potency of drugs in inhibiting specific ^3 H-Prazosin binding (difference between total and nonspecific binding), the test compounds are added to give 5 to 9 different concentrations between 1 nM and 10 μM, each in duplicate. […] The radioactivity of the filters is estimated by scintillation counting.

pIC50: −log10 of the molar value. Bounds are passed on as bounds.

T1 sequence (P20288 whole entry): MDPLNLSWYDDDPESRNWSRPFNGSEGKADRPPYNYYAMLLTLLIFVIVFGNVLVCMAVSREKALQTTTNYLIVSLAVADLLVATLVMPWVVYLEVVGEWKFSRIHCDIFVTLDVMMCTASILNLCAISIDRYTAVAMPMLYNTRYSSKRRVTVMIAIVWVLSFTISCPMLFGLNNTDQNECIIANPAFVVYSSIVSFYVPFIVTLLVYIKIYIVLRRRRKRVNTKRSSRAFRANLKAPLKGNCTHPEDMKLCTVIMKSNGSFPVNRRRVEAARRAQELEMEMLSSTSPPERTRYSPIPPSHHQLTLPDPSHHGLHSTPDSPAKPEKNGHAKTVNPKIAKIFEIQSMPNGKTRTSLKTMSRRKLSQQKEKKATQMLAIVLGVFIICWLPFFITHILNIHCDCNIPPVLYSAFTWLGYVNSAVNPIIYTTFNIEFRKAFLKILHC

`O=C(CCCN1CCN(c2ncc3ccccc3n2)CC1)c1ccc(F)cc1` [Example 1, 4-[4-(Quinazolin-2-yl)-1-piperazinyl]-1-(4-fluorophenyl)-1-butanone]: in test [1], the pIC50 is 6.46 and the “effect in the 3H-spiperone binding test compared with Clozapine” value was “stronger effects in the ^3 H-spiperone binding test than Clozapine”. In test [2] (3.2 mg/kg po), the “Sleep phase II” value is given as 171 % of control and the paradoxical sleep was 92 % of control. Moreover, in test [3], the minimal effective dose worked out at 3.3 mg/kg.

`Cc1nc(N2CCN(CCCC(=O)c3ccc(F)cc3)CC2)nc2ccccc12` [Example 3a]: the ED75 in test [4] amounted to 0.524 mg/kg. For the same compound, the pIC50 in test [5] was 8.46.

Take `O=C(CCCN1CCN(c2nc(-c3ccccc3)c3ccccc3n2)CC1)c1ccc(F)cc1` [Example 3e]: in test [1], the pIC50 is 6.47 and the “effect in the 3H-spiperone binding test compared with Clozapine” value is “stronger effects in the ^3 H-spiperone binding test than Clozapine”. In addition, in test [2] (10 mg/kg po), the “Sleep phase II” value was 607 % of control and the paradoxical sleep is listed as 9 % of control. For the same compound, the minimal effective dose in test [3] is less than 3.2 mg/kg.

`CN1CCN(C2=Nc3cc(Cl)ccc3Nc3ccccc32)CC1` [clozapine, reference compound]: in test [2] (10 mg/kg po), the “Sleep phase II” value is recorded as 483 % of control and the paradoxical sleep was 26 % of control. Besides, in test [3], the minimal effective dose was determined as 3.2 mg/kg.
